Data as given in patent US10683294B2, “5-5 fused rings as C5a inhibitors” (CHEMOCENTRYX, INC., priority 2017, dated 2020).

Molecular target: C5aR (Homo sapiens (Human), UniProt P21730)
Assay: Chemotaxis assay (inhibition of C5aR mediated migration towards C5a)
Type: cell-based
Details: inhibition in the chemotaxis assay (Example 14 B.3); U937 or neutrophil cells, 0.03 nM C5a
Procedure: U937 cells are a monocytic cell line which express C5aR, and are available from ATCC (VA). These cells were cultured as a suspension in RPMI-1640 medium supplemented with 2 mM L-glutamine, 1.5 g/L sodium bicarbonate, 4.5 g/L glucose, 10 mM HEPES, 1 mM sodium pyruvate, and 10% FBS. Cells were grown under 5% CO2/95% air, 100% humidity at 37° C. and subcultured twice weekly at 1:6 (cells were cultured at a density range of 1×10^5 to 2×10^6 cells/mL) and harvested at 1×10^6 cells/mL. Prior to assay, cells are treated overnight with 0.5 mM of cyclic AMP (Sigma, Ohio) and washed once prior to use. cAMP treated U937 cells can be used in C5aR ligand binding and functional assays.
Optionally, human or murine neutrophils can be used to assay for compound activity. Neutrophils may be isolated from fresh human blood using density separation and centrifigation. Briefly, whole blood is incubated with equal parts 3% dextran and allowed to separate for 45 minutes. After separation, the top layer is layered on top of 15 mls of Ficoll (15 mls of Ficoll for every 30 mls of blood suspension) and centrifuged for 30 minutes at 400×g with no brake. The pellet at the bottom of the tube is then isolated and resuspended into PharmLyse RBC Lysis Buffer (BD Biosciences, San Jose, Calif.) after which the sample is again centrifuged for 10 minutes at 400×g with brake. The remaining cell pellet is resuspended as appropriate and consists of isolated neutrophils.
Optionally, compounds may be further assayed for their ability to inhibit chemotaxis in cells. Chemotaxis assays are performed using 5 μm pore polycarbonate, polyvinylpyrrolidone-coated filters in 96-well chemotaxis chambers (Neuroprobe; Gaithersburg, Md.) using chemotaxis buffer (Hank's balanced salt solution (HBSS) and 1% FBS). C5aR ligands (i.e., C5a, R&D Systems; Minneapolis, Minn.) are use to evaluate compound mediated inhibition of C5aR mediated migration. Other chemokines (i.e., SDF-1α; R&D Systems; Minneapolis, Minn.) are used as specificity controls. The lower chamber is loaded with 29 μl of chemokine (i.e., 0.03 nM C5a) and varying amounts of compound; the top chamber contains 100,000 U937 or neutrophil cells in 20 μl. The chambers are incubated 1.5 hours at 37° C., and the number of cells in the lower chamber quantified either by direct cell counts in five high powered fields per well or by the CyQuant assay (Molecular Probes), a fluorescent dye method that measures nucleic acid content and microscopic observation.

C5aR, sequence (P21730 whole entry): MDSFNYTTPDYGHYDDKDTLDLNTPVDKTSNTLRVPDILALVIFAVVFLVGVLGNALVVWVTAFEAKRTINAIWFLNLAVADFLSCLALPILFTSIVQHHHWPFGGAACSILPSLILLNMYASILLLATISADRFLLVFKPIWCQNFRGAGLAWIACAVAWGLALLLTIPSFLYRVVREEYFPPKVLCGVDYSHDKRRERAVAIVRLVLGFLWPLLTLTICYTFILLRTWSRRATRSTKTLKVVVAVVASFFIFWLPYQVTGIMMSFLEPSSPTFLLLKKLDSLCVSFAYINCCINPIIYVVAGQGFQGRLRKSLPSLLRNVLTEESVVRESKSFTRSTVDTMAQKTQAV

CCc1cccc(CC)c1-n1nc2c(c1-c1ccc3[nH]ccc3c1)CN(Cc1ccccc1C(F)(F)F)C2(C)C [Compound 1.047]
IC50: 0.005 to 0.05 µM

CCc1cccc(CC)c1-n1nc2c(c1-c1ccc3[nH]ccc3c1)CN(C(=O)OC(C)(C)C)C2(C)C [Compound 1.048]
IC50: 0.005 to 0.05 µM

CCc1cccc(CC)c1-n1nc2c(c1-c1ccc3[nH]ccc3c1)CN(C(c1ccccc1)C(C)(C)O)C2(C)C (stereo not drawn) [Compound 1.049]
IC50: 0.05 to 0.5 µM

CCOC(=O)C(c1ccccc1)N1Cc2c(nn(-c3c(CC)cccc3CC)c2-c2ccc3[nH]ccc3c2)C1(C)C (stereo not drawn) [Compound 1.050]
IC50: 0.005 to 0.05 µM

Cc1cccc(C)c1-n1nc2c(c1-c1ccc3[nH]cnc3c1)CN(CC(C)(C)C)C2 [Compound 1.051]
IC50: ≥ 0.5 µM

Cc1cccc(C)c1-n1nc2c(c1-c1ccc3[nH]ccc3c1)CN(CC(C)(C)C)C2(C)C [Compound 1.052]
IC50: 0.005 to 0.05 µM

Cc1cccc(C)c1-n1nc2c(c1-c1ccc3[nH]ccc3c1)CN(CC(C)(C)C)C2 [Compound 1.053]
IC50: 0.05 to 0.5 µM

CCOC(C)(C)C(=O)N1Cc2nn(-c3c(C)cccc3C)c(-c3ccc4[nH]ccc4c3)c2C1 [Compound 1.054]
IC50: ≥ 0.5 µM

Cc1cccc(C)c1-n1nc2c(c1-c1ccc3[nH]ccc3c1)CN(C(=O)OC(C)(C)C)C2=O [Compound 1.055]
IC50: ≥ 0.5 µM

Cc1cccc(C)c1-n1nc2c(c1-c1ccc3[nH]ccc3c1)CN(C(=O)CCC1CCCC1)C2 [Compound 1.056]
IC50: ≥ 0.5 µM

Cc1cccc(C)c1-n1nc2c(c1-c1ccc3[nH]ccc3c1)CN(C(=O)CC1CCCC1)C2 [Compound 1.057]
IC50: ≥ 0.5 µM

Cc1cccc(C)c1-n1nc2c(c1-c1ccc3[nH]ncc3c1)CN(C(=O)OC(C)(C)C)C2 [Compound 1.058]
IC50: ≥ 0.5 µM

Cc1cccc(C)c1-n1nc2c(c1-c1ccc3[nH]ccc3c1)CN(C(=O)C1CCCC1)C2 [Compound 1.059]
IC50: ≥ 0.5 µM

Cc1cccc(C)c1-n1nc2c(c1-c1ccc3[nH]ccc3c1)CN(C(=O)C(C)C1CCCCC1)C2 (stereo not drawn) [Compound 1.060]
IC50: 0.05 to 0.5 µM

Cc1cccc(C)c1-n1nc2c(c1-c1ccc3[nH]ccc3c1)CN(C(=O)CC(C)(C)C)C2 [Compound 1.061]
IC50: ≥ 0.5 µM

Cc1cccc(C)c1-n1nc2c(c1-c1ccc3[nH]ccc3c1)CN(C(=O)[C@@H](O)C(C)C)C2 [Compound 1.062]
IC50: ≥ 0.5 µM

Cc1cccc(C)c1-n1nc2c(c1-c1ccc3[nH]ccc3c1)CN(S(=O)(=O)c1ccc(C(C)(C)C)cc1)C2 [Compound 1.063]
IC50: ≥ 0.5 µM

Cc1cccc(C)c1-n1nc2c(c1-c1ccc3[nH]ccc3c1)CN(C(=O)c1ccc(C(C)(C)C)cc1)C2 [Compound 1.064]
IC50: ≥ 0.5 µM

Cc1cccc(C)c1-n1nc2c(c1-c1ccc3[nH]ccc3c1)CN(C(=O)NC(C)(C)C)C2 [Compound 1.065]
IC50: ≥ 0.5 µM

Cc1cccc(C)c1-n1nc2c(c1-c1ccc3[nH]ccc3c1)CN(C(=O)c1ccccc1)C2 [Compound 1.066]
IC50: ≥ 0.5 µM

Cc1cccc(C)c1-n1nc2c(c1-c1ccc3[nH]ccc3c1)CN(C(=O)OC(C)(C)C)C2 [Compound 1.067]
IC50: 0.05 to 0.5 µM
